The values that follow are results of earlier work, collected in US11608326B2, “Synthetic receptors for ionophoric compounds” (Universiteit Gent, priority 2018, dated 2023).

In data set [1] the test system is human leukemia cells. Conditions: 3 μM, overnight incubation.
Data set [2] deals with human neural (Paju) cells.

For beauvericin, in data set [1], the “drop of survival rate” value is given as 80%. Besides, the “concentration sufficient to cause depolarization” value in data set [2] was “low μM concentrations”.
